Measured values published in patent publication US20230201311A1, “COMPOSITIONS AND METHODS FOR TREATING NON-ALCOHOLIC STEATOHEPATITIS (NASH)” (SHANGHAI BENEMAE PHARMACEUTICAL CORPORATION, priority 2020, published 2023).

Legend:
HFD-NASH mice [1] = experiment: Pharmacodynamics study of Beinaglutide in HFD-NASH mice (Example 1, 4 weeks); type: in vivo
Experimental: HFD-NASH model development Animals were group-housed in standard cages at 22° C. in a 12:12-h light-dark cycle. Ob/ob mice were allowed ad libitum access to a diet enriched in fat (40% kcal), fructose (20% by weight), and cholesterol (2% by weight) (Research Diets, Inc., #D09100310). Over 9 weeks feeding, the mice (HFD-NASH) were developed with nonalcoholic fatty liver disease (steatosis, steatohepatitis with fibrosis), as assessed by biochemical methods (e.g., ALT levels).^1 ^1Santhekadur P K, Kumar D P, Sanyal AszJ. Preclinical models of non-alcoholic fatty liver disease. J Hepatol. 2018 February; 68(2):230-237; 2) Clapper J R. Hendricks M D, Gu G. at al. Diet-Induced mouse model of fatty liver disease and nonalcoholic steatohepatitis reflecting clinical disease progression and methods of assessment. Am J Physiol Gastrointest Liver Physiol 305: G483-G495. 2013.
After 9 weeks diet-induction, HFD-NASH mice were randomized into different groups by body weight. Body weight and diet were measured every day. At termination, blood was collected by cardiac puncture after animal's euthanasia by CO2. Liver were harvested and weighted. Right medial and/or left lateral lobes of the liver were excised. One part of liver was frozen for liver triglyceride measurement. One part was frozen for protein, RNA level qualification, like collagen 1 alpha 1 (Col1a1). One part was paraffin embedded. Hematoxylin and eosin (H&E) were used for morphological analysis. Picrosirius red stains was used for assessment of hepatic fibrosis. Histopathological analysis was performed by a pathologist blinded to the study. The remaining liver tissue was kept at −80° C. till analysis. Plasma levels of ALT, AST, TG, and total cholesterol (TC) were measured by bioanalyzer or kits.
Oral glucose tolerance test (OGTT) was performed at day 30 and was a test to diagnose type 2 diabetes (FIG. 4B).
Homeostatic Model Assessment of Insulin Resistance (HOMA-IR) is a calculation marker for insulin resistance which was calculated by formula: Glucose (mM)×Insulin […]/22.5 (FIG. 4C). *P<0.05, […] vs vehicle group by student t test.

HFD-NASH mice [2] = experiment: Therapeutic effects of Beinaglutide on HFD induced NASH model in ob/ob mice (Example 2, 11 weeks); type: in vivo; settings: for percentage of body weight changes from baselines: Day 78 (11 weeks); for plasma ALT level: FIG. 16B
Source text: Animal grouping and experiment process: A total of 70 male ob/ob mice (6 weeks old) were fed with a chow diet after transferred to SPF animal room and acclimatized for 1 week. The feed was then switched to HFD diet (D09100310, fat (40 Kcal %), fructose (20 Kcal %) and cholesterol (2%), also named GAN (Gubra Amylin NASH) diet, Research Diets, Inc., USA) and maintained for 6 weeks. Inversed artificial circadian rhythms lighting were adopted during this period and subsequent drug administration period.
Plasma samples were collected for the measurement of ALT and mouse body weight data were measured at week 6. Animals were then randomly allocated into 4 groups (12 animals/group) based on body weight (the first weight index) and plasma ALT level (the second weight index). Drug and vehicle administration were started from week 7 since modeling start and mice were maintained on HFD diet with inversed artificial circadian rhythms lighting.
Data recording: Appearance and behavior of each mouse were observed after administration. All abnormal appearance, status and behaviors were recorded. In the period of HFD model development, body weight was measured once weekly from week 1 to week 6. Then body weight and food consumption were measured twice weekly since compound dosing start (week 7). The food consumption was calculated by the diet consumption of each cage of mice within 8 hours per day, the average food consumption per group was calculated. […]
Blood and tissue sampling: At the end of the in vivo study, all mice were euthanized via carbon dioxide (CO2) asphyxia after 11.5 hours fasting. Blood samples were collected via cardiac puncturing, one aliquot of each blood sample was collected into a tube without anti-coagulant for serum preparation. Serum was obtained by centrifugation at 3000 rpm for 10 minutes at 4° C. and then stored in a −80° C. refrigerator before being used for the measurement of ALT, AST, total bilirubin (TBIL), TC, TG and LDL-c. The other aliquot of each blood sample was collected into a tube with EDTA-K anti-coagulant for plasma preparation. Plasma samples were obtained by centrifugation at 4000×g for 10 minutes at 4° C. and then stored in a −80° C. refrigerator.
After the animal was sacrificed, the body weight and liver weight were measured, and four lobes of each liver were collected. The right middle lobe of each liver was collected, cut into two sections, put into two SNAP frozen tubes and kept at −80° C. before testing. One section of the liver tissue was used for mRNA expression analysis of Tgfb1, Col1a1 and Acta2; and the other section of the liver tissue was used for the measurement of TC and TG contents. The left middle lobe of each liver was collected, store at −80° C. for future use. The left lateral lobe of each liver was collected, cut into two sections and put into two tubes. One section was used for optimal cutting temperature (OCT) embedding, frozen sectioning and oil red staining for steatosis examination, and for calculation of percentage of fat deposition area. The other section was fixed with 10% neutral formalin solution and processed into formalin fixed paraffin-embedded (FFPE) block for H&E, Sirius red or α-SMA IHC staining respectively. The right lateral lobe of each liver was collected and fixed in 10% neutral formalin for future use.
Serum biochemistry analysis: The serum samples were taken out from −80° C. refrigerator and restored to room temperature. 150 μl of each serum sample was pipetted out for the analysis of ALT, AST, TBIL, TC, TG and LDL-c with automatic biochemical analyzer (HITACHI 7180).
qPCR analysis: The right middle lobe of each liver tissue was cut into small pieces, and 30-50 mg of liver tissue was weighed and transferred into a Lysing Matrix D tube, then 1 ml of TRIzol Reagent was added into Lysing Matrix D containing tissue immediately. […]

[3] = mouse, in vivo, sc
Experimental: Mice (n=4 per time point) were randomized into different groups by body weight on the day before the study. Mice were fasted overnight before dosing. […] Samples were collected at the time intervals shown in Table 1, where about 60 μL blood was taken into EDTA-coated tubes (pre-added 2.5 μL DPP-4 inhibitor, and 2.5 μL protease inhibitor). The plasma was separated on a pre-cooled centrifuge and then immediately frozen in dry ice. The samples were stored at −80° C. till assay.

[4] = all 3 doses (0.6, 1.2, 2.4 mg/kg), about 11 weeks

## CC[C@H](C)[C@H](NC(=O)[C@H](Cc1ccccc1)NC(=O)[C@H](CCC(=O)O)NC(=O)[C@H](CCCCN)NC(=O)[C@H](C)NC(=O)[C@H](C)NC(=O)[C@H](CCC(N)=O)NC(=O)CNC(=O)[C@H](CCC(=O)O)NC(=O)[C@H](CC(C)C)NC(=O)[C@H](Cc1ccc(O)cc1)NC(=O)[C@H](CO)NC(=O)[C@H](CO)NC(=O)[C@@H](NC(=O)[C@H](CC(=O)O)NC(=O)[C@H](CO)NC(=O)[C@@H](NC(=O)[C@H](Cc1ccccc1)NC(=O)[C@@H](NC(=O)CNC(=O)[C@H](CCC(=O)O)NC(=O)[C@H](C)NC(=O)[C@@H](N)Cc1cnc[nH]1)[C@@H](C)O)[C@@H](C)O)C(C)C)C(=O)N[C@@H](C)C(=O)N[C@@H](Cc1c[nH]c2ccccc12)C(=O)N[C@@H](CC(C)C)C(=O)N[C@H](C(=O)N[C@@H](CCCCN)C(=O)NCC(=O)N[C@@H](CCCNC(=N)N)C(=O)O)C(C)C [Beinaglutide]
HFD-NASH mice [1]; 2.4 mg/kg s.c. three times per day, 4 weeks, vs control group, FIG. 4A
  Body weight: lower body weight
HFD-NASH mice [1]; 2.4 mg/kg s.c. three times per day, 4 weeks, vs vehicle, FIG. 2A
  liver weight: significantly reduced
HFD-NASH mice [1]; 2.4 mg/kg s.c. three times per day, 4 weeks, vs vehicle, FIG. 2B
  liver triglyceride (TG) content: significantly reduced
HFD-NASH mice [1]; 2.4 mg/kg s.c. three times per day, 4 weeks, vs vehicle, FIG. 2C
  plasma alanine aminotransferase (ALT): significantly reduced
HFD-NASH mice [1]; 2.4 mg/kg s.c. three times per day, 4 weeks, vs vehicle, FIG. 2D
  plasma aspartate aminotransferase (AST): significantly reduced
HFD-NASH mice [1]; 2.4 mg/kg s.c. three times per day, 4 weeks, vs vehicle, FIG. 2E
  macrovesicular and microvesicular steatosis (H&E-stained liver sections): significantly reduced
HFD-NASH mice [1]; 2.4 mg/kg s.c. three times per day, 4 weeks, vs vehicle, FIG. 3A
  Plasma TNF-α level: significantly reduced
HFD-NASH mice [1]; 2.4 mg/kg s.c. three times per day, 4 weeks, vs vehicle, FIG. 3B
  Plasma IL-6 level: significantly reduced
HFD-NASH mice [1]; 2.4 mg/kg s.c. three times per day, 4 weeks, vs vehicle, FIG. 3E
  Hepatic fibrosis (picrosirius red stained liver sections): significantly reduced
HFD-NASH mice [1]; 2.4 mg/kg s.c. three times per day, 4 weeks, vs vehicle, FIGS. 3C-3D
  Protein level of liver collagen 1 alpha 1 (western blotting, densitometry normalized to actin): significantly lower
HFD-NASH mice [1]; 2.4 mg/kg, OGTT at day 30, vs control group, FIG. 4B
  blood glucose in the oral glucose tolerance test (OGTT): lower blood glucose
HFD-NASH mice [1]; 2.4 mg/kg, vs control group, FIG. 4C
  HOMA-IR (insulin resistance): lower insulin resistance
HFD-NASH mice [2]; 0.6 mg/kg and 2.4 mg/kg, 11 weeks, vs control group, FIGS. 20A-20C
  liver fibrosis scores (H&E staining): significantly (P<0.05) decreased
HFD-NASH mice [2]; 0.6 mg/kg or 2.4 mg/kg, about 11 weeks
  animal counts with severe pathological changes (steatosis, steatosis location, interlobular inflammation, liver fibrosis scores, liver fibrosis pattern): decreased
HFD-NASH mice [2]; 0.6 mg/kg t.i.d. s.c., first of three values given 'respectively'
  percentage of body weight changes from baselines: −10.32%
HFD-NASH mice [2]; 1.2 mg/kg and 2.4 mg/kg, 11 weeks, FIG. 18B
  liver TG contents: dramatically decreased
HFD-NASH mice [2]; 1.2 mg/kg and 2.4 mg/kg, after 6 weeks of treatment
  plasma ALT level: significantly decreased
HFD-NASH mice [2]; 1.2 mg/kg and 2.4 mg/kg, after 11 weeks of treatment, vs control group, FIG. 17A
  serum ALT: significantly (P<0.05, or P<0.01) decreased
HFD-NASH mice [2]; 1.2 mg/kg and 2.4 mg/kg, after 11 weeks of treatment, vs control group, FIG. 17E
  serum TC levels: significantly (P<0.05, or P<0.01) decreased
HFD-NASH mice [2]; 1.2 mg/kg and 2.4 mg/kg, after 11 weeks, P>0.05, FIG. 17B
  serum AST level: appeared to have decreased
HFD-NASH mice [2]; 1.2 mg/kg t.i.d. s.c., second of three values given 'respectively'
  percentage of body weight changes from baselines: −10.12%
HFD-NASH mice [2]; 2.4 mg/kg t.i.d. s.c., third of three values given 'respectively'
  percentage of body weight changes from baselines: −10.74%
HFD-NASH mice [2]; 2.4 mg/kg, 11 weeks, vs control group, FIG. 23B
  area of liver macrovesicular steatosis (H&E staining): significantly decreased
HFD-NASH mice [2]; 2.4 mg/kg, 11 weeks, FIG. 21C
  number of animals with significant fibrosis severity (liver fibrosis pattern scoring): reduced
HFD-NASH mice [2]; 2.4 mg/kg, 11 weeks, FIGS. 24A-24E
  animal number with severe pathology for steatosis, steatosis location, interlobular inflammation: decreased
HFD-NASH mice [2]; Beinaglutide treatment groups (0.6, 1.2, 2.4 mg/kg t.i.d. s.c.), 11 weeks, vs control group, FIGS. 13A-13D
  body weight increase: significantly reduced
HFD-NASH mice [2]; Beinaglutide treatment groups (0.6, 1.2, 2.4 mg/kg), last 3 measurements (Day 68, 71, 75), vs control group, FIG. 14
  8-hour average food consumption: significantly reduced
HFD-NASH mice [2]; Beinaglutide treatment groups vs control group, after 9 weeks treatment
  plasma ALT level: no significant difference
HFD-NASH mice [2]; Beinaglutide treatment groups, 11 weeks, P>0.05, FIG. 17D
  serum TG levels: no significant effect
HFD-NASH mice [2]; Beinaglutide treatment groups, 11 weeks, vs control group, FIG. 18A
  liver TC content: No statistically significant effect
HFD-NASH mice [2]; Beinaglutide treatment groups, 11 weeks, FIG. 17C
  serum TBIL: no significant effect
HFD-NASH mice [2]; [4]
  liver inflammation score: appeared to have decreased
  serum AST level: appeared to have decreased
HFD-NASH mice [2]; all Beinaglutide treatment groups, 11 weeks, FIGS. 22A-22B
  α-SMA positive areas (IHC staining): decreased
HFD-NASH mice [2]; each Beinaglutide dose group, 11 weeks, vs control group, FIG. 19A
  relative mRNA expression level of Col1a1 in liver (qRT-PCR): significantly decreased
HFD-NASH mice [2]; each Beinaglutide dose group, 11 weeks, vs control group, FIG. 19B
  Tgfb1 gene expression level in liver (qRT-PCR): no statistically significant differences
HFD-NASH mice [2]; each Beinaglutide dose group, 11 weeks, vs control group, FIG. 19C
  Acta2 gene expression level in liver (qRT-PCR): no statistically significant differences
HFD-NASH mice [2]; each Beinaglutide treatment group (0.6, 1.2, 2.4 mg/kg), 11 weeks, vs control group, FIG. 17F
  serum LDL-c level: significant (P<0.05, P<0.01, or even P<0.001) decrease
HFD-NASH mice [2]; each Beinaglutide treatment group, 11 weeks, vs control group, FIGS. 21A-21C
  percentage of Sirius red staining positive area: appeared to have decreased
HFD-NASH mice [2]; every Beinaglutide treatment group (0.6, 1.2, 2.4 mg/kg), 11 weeks, vs control group, FIG. 15A
  liver weight: significantly decreased
HFD-NASH mice [2]; every Beinaglutide treatment group (0.6, 1.2, 2.4 mg/kg), 11 weeks, vs control group, FIG. 15B
  liver index: significantly decreased
HFD-NASH mice [2]; every Beinaglutide treatment group, 11 weeks, FIG. 23A
  NAS score: appeared to have decreased
[3]
  difference of pharmacokinetics between C57BL/6J mice and HFD-NASH mice: No significant difference
